Experiment [1] deals with T1, HDAC2 (Homo sapiens, UniProt Q92769). In words: HDAC enzyme inhibition assay. Format: biochemical. More on the design: purchased BPS Bioscience 50052. Here is the method: Bio-Rad) to Immobilon-FL PVDF membranes (Catalog# IPFL00005, Mill ipore Merck, Burlington, MA, USA) at 1.0 A for 30 min and treated with 5% milk-powder solution for 1 h at room temperature […]
Signaling Technology) antibody solutions in 1:1000 –1:8000 dilutions at 4 °C overnight. […]
Significance testing was performed with a one -way analysis of variance (ANOVA). Dunnett’s post -hoc test was employed to obtain significance levels of each mean compared to a reference mean value.
2.7. HDAC Enzyme Inhibition Assay […]
[4] For test compounds and controls, serial dilutions of the respective DMSO stock solution in DMSO were prepared, and 1.0 μL /well of this serial dilution were transferred […]
into OptiPlate-96 black microplates (PerkinElmer, Waltham, […], USA). A volume of 4 µL/well assay […]
BSA) was added. In the case of HDAC1, 2, and 6, a volume of 35 μL/well of the fluorogenic substrate […]
The total assay volume of 50 μL (max. 2 % DMSO) was incubated at 37 °C for 90 min. Subsequently, 50 μL /well of trypsin (0.4 mg/mL) in trypsin buffer (50 mM Tris−HCl, pH 8.0, 100 mM NaCl) was added, followed by additional 30 min of incubation at […]
OPTIMA microplate reader (BMG labtech, Ortenburg, Germany). The half maximal inhibitory concentration (IC50) was determined by plotting dose response curves and nonlinear regression with GraphPad Prism (GraphPad Software).
2.8. MTT Cell Viability Assay […]

Experiment [2] has as its target T1, HDAC2. Kind of experiment: Immunoblot HDAC2 degradation in MM.1S cell lysates. In kind it is cell-based. To be noted: MM1.S, MM.1S cells, 24 h, read-out: maximal degradation (Dmax) HDAC2. On the set-up: endogenous in cells; host or cells: MM.1S. Here is the method: Figure 6 Examination of HDAC isoform degradation. MM.1S cells were treated with the indicated compounds (10 μM) or vehicle (DMSO) for 24 h. HDAC1, 2, 4, and 6 levels were analyzed by immunoblotting. (A) Representative images from a total of n=3 biological replicates. […]
The cell lysis was performed as descripted in 3.2. Simple Western Immunoassay. Samples were denatured by Laemmli 2× Concentrate (Catalog# S3401-10VL, Sigma-Aldrich) for 5 min at 95 °C, and Precision Plus Protein Unstained Standard was used as molecular weight marker (Catalog# 1610363, Bio-Rad, Hercules, CA, USA). SDS-PAGE was performed with 10 or 12% Mini-PROTEAN TGX Stain-Free Gel (Catalog# 458035, Bio -Rad) at 200 V for 50 min (Catalog# 458035, Bio -Rad).
Afterwards, proteins were transferred with the Trans -Blot Turbo Transfer System (Catalog# 1704150, Bio-Rad) to Immobilon-FL PVDF membranes (Catalog# IPFL00005, Mill ipore Merck, Burlington, MA, USA) at 1.0 A for 30 min and treated with 5% milk-powder solution for 1 h at room temperature under slight agitation. […] The ChemiDoc XRS+ System (Catalog# 1708265 , Bio-Rad) was used for detection and Image Lab Software 6.1 (Bio-Rad) for quantification. […]
For orientation: Immunoblotting shows a protein as a band on a membrane.

T1 sequence (Q92769 whole entry): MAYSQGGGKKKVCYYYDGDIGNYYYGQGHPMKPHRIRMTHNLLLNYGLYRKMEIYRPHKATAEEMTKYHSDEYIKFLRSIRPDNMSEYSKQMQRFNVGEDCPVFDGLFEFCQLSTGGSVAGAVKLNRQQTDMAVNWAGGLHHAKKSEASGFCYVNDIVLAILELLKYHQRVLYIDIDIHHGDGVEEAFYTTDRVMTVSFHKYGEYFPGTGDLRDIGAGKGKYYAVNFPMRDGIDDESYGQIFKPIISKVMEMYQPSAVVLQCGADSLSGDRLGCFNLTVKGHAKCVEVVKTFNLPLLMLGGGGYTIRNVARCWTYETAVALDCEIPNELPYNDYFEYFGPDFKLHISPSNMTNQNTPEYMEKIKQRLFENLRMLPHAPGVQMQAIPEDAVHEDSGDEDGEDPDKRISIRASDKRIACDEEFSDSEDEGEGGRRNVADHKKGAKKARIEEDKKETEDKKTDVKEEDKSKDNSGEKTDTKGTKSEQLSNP

As for `O=C(CCCCCCNC(=O)c1ccc(NC(=O)CCCCCCCCCCCN(C(=O)CCl)C(C(=O)NCc2ccccc2)c2ccc(Cl)c(Cl)c2)cc1)NO` (stereo not shown) [Compound 1j], the midpoint of inhibition in experiment [1], the IC50, lay at 2.15 ± 0.11 µM. Also, the Dmax – broadly, the largest share of the target that was removed – at 10 µM in experiment [2] fell in the range of 71 to 76%.

For the compound `O=C(CCCCCCNC(=O)c1ccc(N(C(=O)CCl)C(C(=O)NCc2ccccc2)c2ccc(Cl)c(Cl)c2)cc1)NO` (stereo not shown) [Compound 2], the half-maximal inhibitory concentration (IC50) (in general, the concentration that inhibits the measured activity by half) in experiment [1] turned out to be 0.298 ± 0.011 µM. Besides, the Dmax at 10 µM in experiment [2] worked out at 51%.

For the origin of these results see publication PMC12091851, “Replacing a Cereblon Ligand by a DDB1 and CUL4 Associated Factor 11 (DCAF11) Recruiter Converts a Selective Histone Deacetylase 6 PROTAC into a Pan‐Degrader” (Chemmedchem, 2025).
